Results as given in paper PMC12569658, “An Orally Administered Misuse Deterrent Opioid Prodrug for Treatment of Acute Pain” (JACS Au, 2025).

Experiments:
[1] = tested on: chymotrypsin and trypsin; test: Michaelis-Menten competitive inhibition release assay of 12 with peptide byproduct 19; type: biochemical; conditions: 19 at 1.6, 0.8, 0.4 or 0.2 mM; 12 at 0.1-2.0 mM; chymotrypsin and trypsin 0.02 mM each; 35 mM HEPES pH 7.5; n = 3
Excerpt: Prior to moving forward with analgesia studies in vivo, it was important to ensure that the AAAY (19) peptide byproduct from chymotrypsin cleavage was not competitively inhibiting the pNP release. This could be an issue in vivo, as the PEPT1 transepithelial transporter in the digestive tract has a very weak binding affinity for tetrapeptides. A lack of transport for 19 could lead to the accumulation and generation of a competitive inhibitor for chymotrypsin, thus reducing the overall amount of opioid released. To examine this hypothesis, Michaelis–Menten competitive inhibition enzyme kinetics were performed with chymotrypsin and trypsin for 12 in the presence of peptide 19. […] These observations enhanced our confidence in using the 12 prodrug scaffold for in vivo analgesia studies.
Competitive Inhibition Release Assay
12 was dissolved in DMSO and diluted using 35 mM HEPES buffer (pH 7.5) to a final substrate concentration of 2.0, 1.5, 1.0, 0.5, 0.24, and 0.1 mM, maintaining a constant concentration of DMSO across all conditions. 19 was added to yield a final concentration of either 1.6, 0.8, 0.4, or 0.2 mM. […] Immediately upon addition of the proteases, the 96 - well plate was inserted into the plate reader and the absorbance at 405 nm was monitored over the course of 4 hours. […]

[2] = tested on: C57BL/6J mice; test: Hot plate latency after intraperitoneal injection; type: in vivo, mouse; conditions: 30 mg/kg of oxycodone in prodrug, 55 °C hot plate, n = 6, ns vs water
[3] = tested on: chymotrypsin and trypsin; test: Michaelis-Menten kinetics of pNP release in the presence of both chymotrypsin and trypsin; type: biochemical; conditions: for Km / VMax / kCat/KM (substrate specificity): chymotrypsin and trypsin 0.02 mM each, substrate 0.1-2.0 mM, 35 mM HEPES pH 7.5, 37 °C, absorbance 405 nm, average of n = 3
Excerpt: In order to ensure the prodrug would be cleaved effectively once it was exposed to chymotrypsin and trypsin in concentrations found in the […], we elected to optimize the peptide sequence further, particularly on the ε-amine of the lysine, to enhance the substrate efficiency (Figure B). This would help to ensure that oxycodone is released in the gastrointestinal tract. […] Previous studies have shown that chymotrypsin binding can be enhanced through additional nonbulky amino acid groups following the aromatic residue. ,− Accordingly, substrates 9 and 10, with alanine residues coupled to phenylalanine, were prepared, and their kinetics were examined. […] Coupling a third alanine to the tyrosine residue (12) increased the substrate specificity by around 5-fold compared to 11. Since coupling of alanine residues to the α-amine of 6–8 increased the percentage of pNP release (Figure A), 13 with a single alanine on the N-terminus was prepared. Compared to substrate 11 with no N-terminal alanine, there was a minimal effect on the K M, but the V Max was reduced by half, leading to a lower k Cat/K M. Since 12 had the highest k Cat/K M and the fastest V Max, we proceeded to use this peptide scaffold for further experiments. […]
(§1) General Procedure – Michaelis-Menten Kinetics […]
(§2) substrate concentration of 2.0, 1.5, 1.0, 0.5, 0.24, and 0.1 mM, maintaining a constant concentration of DMSO across all conditions. These solutions were then combined with chymotrypsin and trypsin to afford a final concentration of 0.02 mM for each enzyme. Immediately upon addition of the proteases, the 96-well plate was inserted into the plate reader and the absorbance at 405 nm was monitored over the course of 4 ho urs with time points taken every 30 seconds. The plate was incubated in the plate reader at 37 °C. All conditions were carried out in triplicate and reported as the average between the three replicates. Michaelis -Menten enzyme kinetic analysis was carried out using GraphPad Prism 8.4.3. Substrate concentrations were adjusted as needed to obtain relevant Michaelis -Menten statistics. Concentrations of substrate are shown in their respective activity plots below.

[4] = tested on: chymotrypsin and trypsin; test: In vitro simulated digestion (pNP release) assay with trypsin, chymotrypsin or both enzymes; type: biochemical; conditions: substrate 1.5 mM, 35 mM HEPES pH 7.5, 37 °C, n = 3
Procedure: We hypothesized that by protecting the phenol with a tert-butyl ether, chymotrypsin would not recognize the tyrosine derivative prior to passage through the acidic conditions in the stomach where the tert-butyl ether would be removed. This additional security measure removes the ability to pretreat the prodrug with store-bought digestive enzyme supplements to release the opioid.
General Procedure – Release Kinetics
(§3) The peptide was dissolved in DMSO and diluted using 35 mM HEPES buffer (pH 7.5) to a final substrate concentration of 1.5 mM, maintaining a constant concentration of DMSO across all conditions. These solutions were then combined with either chymotrypsin, trypsin, or both enzymes to afford a final concentration of 0.02 mM for each enzyme. Immediately upon addition of the proteases, the 96-well plate was inserted into the plate reader and the absorbance at 405 nm was monitored over the course of 4 hours with time points taken every 30 seconds. The plate was incubated in the plate reader at 37 °C.
as §1, §2

[5] = tested on: C57BL/6J mice; conditions: IP injection of oxycodone; ref previous reports (reference numbers not printed); cited from earlier work
Excerpt: To confirm that this analgesic effect was due to enzymatic degradation of the prodrug in the digestive system, the antinociceptive effects of prodrug 20 were examined following systemic intraperitoneal (IP) injection.

[6] = target: T1, chymotrypsin (Bos taurus, UniProt P00766); test: pNP release assay in the presence of chymotrypsin only; type: biochemical; conditions: chymotrypsin only 0.02 mM, substrate 1.5 mM, 35 mM HEPES pH 7.5, 37 °C, absorbance 405 nm, over 4 h
T1 construct: purchased
Excerpt: Using the branched lysine peptide sequences modified from our previous work, we began to explore the sequence effects on the efficiency and release rate of a model reporter molecule, p-nitrophenol (pNP). Peptides 6–8 were initially prepared to determine whether the peptide backbone length had any effect on the release of pNP in the presence of chymotrypsin alone (Figure A; see Supporting Information (SI) for synthetic procedures). Chymotrypsin promiscuity (i.e., cleavage of both sites) could lead to less misuse deterrence as only one enzyme could promote the release of the opioid. […] However, substrate 8 reached greater than 90% pNP release within 3 h (Figures A and S15). […]
as §3, with “These solutions were then combined with either chymotrypsin, trypsin, or both enzymes to afford a final concentration of 0.02 mM for each enzyme.” left out, “°C. […]” for “°C.”
substrate concentration of 2.0, 1.5, 1.0, 0.5, 0.24, and 0.1 mM, maintaining a constant concentration of DMSO across all conditions. […] The plate was incubated in the plate reader at 37 °C. […]

For “Ala-Ala-Ala-Tyr trifluoroacetate [compound 19]”, the “competitive inhibition of pNP release from 12” value [1] was “negligibly affected”.

For “Ac-Lys[Tyr-Ala-Ala-Ala]-(2-(oxycodone-thionocarbamate)methyl)ethylamino ditrifluoroacetate [compound 20]”, the “withdrawal threshold (hot plate) latency after IP injection” value [2] was “did not alleviate acute pain”.

For “Ac-Lys[Tyr-Ala-Ala-Ala]-(2-(pNP-thionocarbamate)methyl)ethylamino trifluoroacetate [compound 12]”, the Km [3] was 2350 µM, the VMax [3] was 0.749 µM/s and the “increase of substrate specificity (kCat/KM) compared to 11” value ([3]; chymotrypsin and trypsin, relative to 11) was “around 5 fold”. For the same molecule, the “pNP release at which the simulated digestion assay stagnated” value ([4]; both chymotrypsin and trypsin 0.02 mM each, absorbance 405 nm, plateau) was about 30% and the “enzyme requirement for pNP release” value ([4]; trypsin, chymotrypsin, or both enzymes, 0.02 mM each) was “only observed in the presence of both proteolytic enzymes”.

In the case of “Ac-Lys[Tyr(tBu)-Ala-Ala-Ala]-(2-(pNP-thionocarbamate)methyl)ethylamino trifluoroacetate [compound 14]”, the “pNP release over 150 min” value ([4]; both chymotrypsin and trypsin 0.02 mM each, absorbance 405 nm, 150 min, no acidic pretreatment) is reported as about 5%.

With “Ac-Ala-Lys[Tyr-Ala-Ala]-(2-(pNP-thionocarbamate)methyl)ethylamino trifluoroacetate [compound 13]” the Km [3] was 4160 µM and the VMax [3] was 0.119 µM/s.

In the case of `COc1ccc2c3c1O[C@H]1C(=O)CC[C@@]4(O)[C@@H](C2)N(C)CC[C@]314` [oxycodone], the “analgesic effect after IP injection” value [5] is listed as “there is an analgesic effect”.

With “Ala-Lys[(Ac)Phe]-(2-(pNP-thionocarbamate)methyl)ethylamino trifluoroacetate [compound 7]” the “pNP release over the course of 4 h, chymotrypsin alone” value [6] was “less than 15%”, the Km [3] was 941 µM and the VMax [3] was 0.019 µM/s. The “kCat/KM (substrate specificity)” value [3] was 9.97 × 10^–7 μM^-1s^-1.

“Ac-Lys[Tyr-Ala-Ala]-(2-(pNP-thionocarbamate)methyl)ethylamino trifluoroacetate [compound 11]” gave a Km [3] of 4000 µM and a VMax [3] of 0.276 µM/s.

With “Ac-Lys[Phe-Ala-Ala]-(2-(pNP-thionocarbamate)methyl)ethylamino trifluoroacetate [compound 10]” the Km [3] was 1970 µM, the VMax [3] was 0.225 µM/s and the “kCat/KM (substrate specificity)” value [3] was 5.73 × 10^–6 μM^-1s^-1.

“Ac-Lys[Phe-Ala]-(2-(pNP-thionocarbamate)methyl)ethylamino trifluoroacetate [compound 9]” gave a Km [3] of 1420 µM and a VMax [3] of 0.021 µM/s.
